Data: patent publication US20250129021A1, “SMALL MOLECULE PROTEIN SYNTHESIS MODULATORS” (Interdict Bio, Inc., priority 2023, published 2025)
Read-outs that look alike come from different tables or passages of the source.

Experiments:
Type in all cases: biochemical
MYC = assay: In vitro transcription-translation (IVTT) assay, MYC reporter; conditions: HeLa S3 lysate, 2 hrs at 30° C.
Summary of the method: (§1)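 Reporter: mCherry, P2A, then 3×FLAG-target peptide-sfGFP fusion, IRES-initiated; HeLa S3 lysate IVTT; cpd dilutions 30 μM−0.1 μM half-log in 100% DMSO (dilution-plate conc); DNA added last; 2 h, 30° C; PBS quench.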

CCNTB1 = assay: In vitro transcription-translation (IVTT) assay, CCNTB1 reporter; conditions: HeLa S3 lysate, sfGFP/mCherry ratio
Procedure: In vitro transcription-translation assay setup: Each assay includes a master mix containing lysate and shared components, a 96-well plate containing compound titrations for testing, a 96-well DNA plate with reporter constructs to be tested, 96-well skirted PCR plates, and 96-well flat-bottom, black, fluorescent assay plates. Reaction materials setup: (A) Master mix—15 mL conical tube (3 mL of HeLa S3 Lysate described above; 0.6 mL of ThermoFisher Accessory Proteins (#88882); 1.2 ml of ThermoFisher Reaction Mix (#88882); 0.54 mL of nuclease-free Water); (B) 96-Well Master Mix+Compound Plate (Half-log dilutions (30 μM−0.1 μM) of 4 compounds of interest are prepared in 100% DMSO); 96-Well DNA Plate (Five DNA constructs are plated into single columns within the plate. Row 1 of the column contains nuclease free H2O, all other wells contain 110 ng/μL plasmid DNA). Reactions are started by mixing 155 μL of master mix and 3.5 μL of compound serial dilutions, then 9.1 μL of master mix+compound mixture is aliquoted across 5 96-well plates. Reactions begin with final addition of 2 μL of DNA for a 11.1 μL reaction volume in each well. The entire plate is sealed, and incubated for 2 hrs at 30° C. After 2 hrs, quench the assay using 45 μL of PBS, and transfer 50 μL to a flat-bottom black microplate Quantify the sfGFP and mCherry signals from each well on each plate, taking 3 reads of each plate, and perform data analysis below.
In vitro transcription-translation assay data analysis: Each plate is read three times in channels for both sfGFP and mCherry signals. The average signal across these 3 reads is then calculated for further analysis. Control wells containing no DNA reporter are subtracted from reporter wells in the same column to remove auto-fluorescence of the lysate. Then, the ratio of sfGFP/mCherry is calculated per well, and these ratios are averaged across the triplicate experiments on the same plate. Finally, the ratio of each titration concentration is normalized to the no drug control to create the normalized stalling metric. The error on this measurement is determined by propagating error through the averaging and normalization steps. Values are plotted and fit for IC50 determination for each test sequence and titration of compound.

MCL-1 = assay: In vitro transcription-translation (IVTT) assay, MCL-1 reporter; conditions: HeLa S3 lysate, sfGFP/mCherry ratio
Summary of the method: as §1

CCND1 = assay: In vitro transcription-translation (IVTT) assay, CCND1 reporter; conditions: HeLa S3 lysate, sfGFP/mCherry ratio
Summary of the method: as §1

KRAS G12D = assay: In vitro transcription-translation (IVTT) assay, KRAS G12D reporter; conditions: HeLa S3 lysate, sfGFP/mCherry ratio, 2 hrs at 30° C.
Summary of the method: as §1

ALK = assay: In vitro transcription-translation (IVTT) assay, ALK reporter; conditions: HeLa S3 lysate, sfGFP/mCherry ratio, 2 hrs at 30° C.
Summary of the method: as §1

[1] = IVTT assay, MYC reporter, normalized sfGFP/mCherry ratio, half-log dilutions 30 μM-0.1 μM
[2] = IVTT assay, read-out: MCL1 IC50

| SMILES | IC50 (MYC; [1]) [µM] | IC50 (CCNTB1) [µM] | IC50 (MCL-1; [2]) [µM] | IC50 (CCND1; IVTT assay) [µM] | IC50 (MYC; sfGFP/mCherry ratio) [µM] | IC50 (KRAS G12D) [µM] | IC50 (ALK) [µM] | IC50 (MCL-1; 2 hrs at 30° C.) [µM] | IC50 (CCND1; 2 hrs at 30° C.) [µM] |
| --- | --- | --- | --- | --- | --- | --- | --- | --- | --- |
| O=C(NCc1ccc2c(c1)CCNC2)O[C@@H]1[C@@H](O)CN[C@@H]1Cc1ccc(-c2cnco2)cc1 [V192056, (2R,3S,4S)-4-hydroxy-2-{[4-(1,3-oxazol-5-yl)phenyl]methyl}pyrrolidin-3-yl N-(1,2,3,4-tetrahydroisoquinolin-6-ylmethyl)carbamate] | < 10 | < 10 | < 10 | < 10 | – | – | – | – | – |
| COc1ccc(C[C@H]2NC[C@H](O)[C@H]2OC(=O)NCC[C@@H]2CCCNC2)cc1 [V191903, (2R,3S,4S)-4-hydroxy-2-[(4-methoxyphenyl)methyl]pyrrolidin-3-yl N-{2-[(3S)-piperidin-3-yl]ethyl}carbamate] | < 10 | < 10 | < 10 | 10 to 20 | – | – | – | – | – |
| COc1ccc(C[C@H]2NC[C@H](O)[C@H]2OC(=O)NCc2ccnc(N3CC4(CCC4)C3)c2)cc1 [V192068, (2R,3S,4S)-4-hydroxy-2-[(4-methoxyphenyl)methyl]pyrrolidin-3-yl N-[(2-{2-azaspiro[3.3]heptan-2-yl}pyridin-4-yl)methyl]carbamate] | < 10 | < 10 | < 10 | 10 to 20 | – | – | – | – | – |
| O=C(NCC[C@@H]1CCCN1)O[C@@H]1[C@@H](O)CN[C@@H]1Cc1ccc(-c2ccc(Cl)s2)cc1 [V191891, (2R,3S,4S)-2-{[4-(5-chlorothiophen-2-yl)phenyl]methyl}-4-hydroxypyrrolidin-3-yl N-{2-[(2S)-pyrrolidin-2-yl]ethyl}carbamate] | < 10 | < 10 | < 10 | 10 to 20 | – | – | – | – | – |
| COc1ccc(C[C@H]2NC[C@H](O)[C@H]2OC(=O)NCC[C@]2(C)CCCN2)cc1 [V191921, (2R,3S,4S)-4-hydroxy-2-[(4-methoxyphenyl)methyl]pyrrolidin-3-yl N-{2-[(2S)-2-methylpyrrolidin-2-yl]ethyl}carbamate] | < 10 | < 10 | < 10 | 10 to 20 | – | – | – | – | – |
| O=C(NCC[C@@H]1CCCN1)O[C@@H]1[C@@H](O)CN[C@@H]1Cc1ccc(-c2ccc3c(c2)CC(F)(F)C3)cc1 [V191961, (2R,3S,4S)-2-{[4-(2,2-difluoro-1,3-dihydroinden-5-yl)phenyl]methyl}-4-hydroxypyrrolidin-3-yl N-{2-[(2S)-pyrrolidin-2-yl]ethyl}carbamate] | 10 to 20 | < 10 | < 10 | 10 to 20 | – | – | – | – | – |
| O=C(NCc1ccc2c(c1)CCNC2)O[C@@H]1[C@@H](O)CN[C@@H]1Cc1ccc(-c2cncs2)cc1 [V192109, (2R,3S,4S)-4-hydroxy-2-(4-(thiazol-5-yl)benzyl)pyrrolidin-3-yl ((1,2,3,4-tetrahydroisoquinolin-6-yl)methyl)carbamate] | < 10 | < 10 | < 10 | < 10 | – | – | – | – | – |
| O=C(NCC[C@H]1CCCN1)O[C@@H]1[C@@H](O)CN[C@@H]1Cc1ccc(-c2ccccc2)cc1 [V192036, (2R,3S,4S)-2-{[1,1′-biphenyl]-4-ylmethyl}-4-hydroxypyrrolidin-3-yl N-{2-[(2R)-pyrrolidin-2-yl]ethyl}carbamate] | < 10 | < 10 | – | 10 to 20 | – | – | – | – | – |
| O=C(NCC[C@H]1CCCN1)O[C@@H]1[C@@H](O)CN[C@@H]1Cc1ccc(-c2ccc3c(c2)CC(F)(F)C3)cc1 [V192040, (2R,3S,4S)-2-{[4-(2,2-difluoro-1,3-dihydroinden-5-yl)phenyl]methyl}-4-hydroxypyrrolidin-3-yl N-{2-[(2R)-pyrrolidin-2-yl]ethyl}carbamate] | 10 to 20 | < 10 | 10 to 20 | 20 to 30 | – | – | – | – | – |
| O=C(NCC[C@H]1CCCN1)O[C@@H]1[C@@H](O)CN[C@@H]1Cc1ccc(-c2ccc(C(F)(F)F)cc2)cc1 [V192038, (2R,3S,4S)-4-hydroxy-2-{[4′-(trifluoromethyl)-[1,1′-biphenyl]-4-yl]methyl}-pyrrolidin-3-yl N-{2-[(2R)-pyrrolidin-2-yl]ethyl}carbamate; Trifluoroacetic Acid] | > 30 | > 30 | – | > 30 | – | – | – | – | – |
| O=C(NCc1cccc(F)c1)O[C@@H]1[C@@H](O)CN[C@@H]1Cc1ccc(-c2nnc(C(F)(F)F)s2)cc1 [V192102, (2R,3S,4S)-4-hydroxy-2-({4-[5-(trifluoromethyl)-1,3,4-thiadiazol-2-yl]phenyl}methyl)pyrrolidin-3-yl N-[(3-fluorophenyl)methyl]carbamate] | 10 to 20 | 10 to 20 | > 30 | > 30 | – | – | – | – | – |
| COc1ccc(C[C@H]2NC[C@H](O)[C@H]2OC(=O)NCC[C@@]2(C)CCCN2)cc1 [V192041, (2R,3S,4S)-4-hydroxy-2-(4-methoxybenzyl)pyrrolidin-3-yl (2-((R)-2-methylpyrrolidin-2-yl)ethyl)carbamate] | < 10 | < 10 | < 10 | 10 to 20 | – | – | – | – | – |
| COc1ccc(C[C@H]2NC[C@H](O)[C@H]2OC(=O)NCC[C@H]2CCC3(CC3)N2)cc1 [V192043, (2R,3S,4S)-4-hydroxy-2-[(4-methoxyphenyl)methyl]pyrrolidin-3-yl N-{2-[(5R)-4-azaspiro[2.4]heptan-5-yl]ethyl}carbamate] | > 30 | > 30 | > 30 | > 30 | – | – | – | – | – |
| O=C(NCc1cccc(F)c1)O[C@@H]1[C@@H](O)CN[C@@H]1Cc1ccc(-c2cn3ccccc3n2)cc1 [V192139] | < 10 | < 10 | < 10 | < 10 | – | – | – | – | – |
| COc1ccc(C[C@H]2NC[C@H](O)[C@H]2OC(=O)NCc2cocn2)cc1 [V187767, (2R,3S,4S)-4-hydroxy-2-[(4-methoxyphenyl)methyl]pyrrolidin-3-yl N-(1,3-oxazol-4-ylmethyl)carbamate] | – | – | – | – | < 10 | < 10 | < 10 | < 10 | < 10 |
| O=C(NCCC1CCNCC1)O[C@@H]1[C@@H](O)CN[C@@H]1Cc1ccc(-c2ccccc2)cc1 [V192050, (2R,3S,4S)-2-{[1,1′-biphenyl]-4-ylmethyl}-4-hydroxypyrrolidin-3-yl N-[2-(piperidin-4-yl)ethyl]carbamate] | 10 to 20 | 10 to 20 | 10 to 20 | > 30 | – | – | – | – | – |
| COc1ccc(C[C@H]2NC[C@H](O)[C@H]2OC(=O)NCCC2(N)CC2)cc1 [V191989, (2R,3S,4S)-4-hydroxy-2-(4-methoxybenzyl)pyrrolidin-3-yl (2-(1-aminocyclopropyl)ethyl)carbamate] | < 10 | < 10 | – | < 10 | – | – | – | – | – |
| O=C(NCC[C@H]1CCCN1)O[C@@H]1[C@@H](O)CN[C@@H]1Cc1ccc(-c2ccc(F)c(F)c2)cc1 [V192037, (2R,3S,4S)-2-({3′,4′-difluoro-[1,1′-biphenyl]-4-yl}methyl)-4-hydroxypyrrolidin-3-yl N-{2-[(2R)-pyrrolidin-2-yl]ethyl}carbamate] | 10 to 20 | < 10 | – | – | – | – | – | – | – |
| O=C(NCC[C@H]1CCCN1)O[C@@H]1[C@@H](O)CN[C@@H]1Cc1ccc(-c2ccc(S(F)(F)(F)(F)F)cc2)cc1 [V192039, (2R,3S,4S)-4-hydroxy-2-{[4′-(pentafluoro-lambda6-sulfanyl)-[1,1′-biphenyl]-4-yl]methyl}pyrrolidin-3-yl N-{2-[(2R)-pyrrolidin-2-yl]ethyl}carbamate] | > 30 | > 30 | – | > 30 | – | – | – | – | – |
| COc1ccc(C[C@H]2NC[C@H](O)[C@H]2OC(=O)NCCc2ccon2)cc1 [V187700, (2R,3S,4S)-4-hydroxy-2-[(4-methoxyphenyl)methyl]pyrrolidin-3-yl N-[2-(1,2-oxazol-3-yl)ethyl]carbamate; trifluoroacetic acid] | – | – | – | – | < 10 | < 10 | < 10 | < 10 | < 10 |
| COc1ccc(C[C@H]2NC[C@H](O)[C@H]2OC(=O)NCCCN)cc1 [V187591] | – | – | – | – | < 10 | < 10 | < 10 | < 10 | < 10 |
